Laboratory results from patent US10689394B2, “Thieno[2,3-b]pyridine derivative, quinoline derivative, and use thereof” (The University of Tokyo, priority 2016, dated 2020).

Target: T1, binding between ALS-related mutant SOD1 (Flag-SOD1 G93A) and Derlin-1 (Derlin-1-HA) (Homo sapiens, UniProt P00441+Q9BUN8, G94A)
T1 construct: expressed in transfected cells; host or cells: HEK293A
Assay: Cell-based co-immunoprecipitation assay of mutant SOD1 (G93A)-Derlin-1 binding
Design: key to Activity value (score): a compound exhibiting no inhibitory activity is set at 0; a compound exhibiting inhibitory activity is set at 1; a compound exhibiting significant inhibitory activity is set at 2; a compound having higher inhibitory activity than the compound of Example 1 is set at 3
Settings: assay concentration 20 μM; HEK293A cells overexpressing Flag-SOD1 G93A and Derlin-1-HA
Description: As cells, human embryonic kidney-derived, Human Embryonic Kidney 293A (HEK293A) cells were used. The cells were cultured in High Glucose Dulbecco's modified Eagle's medium (DMEM: 4.5 mg/ml glucose, Sigma) supplemented with complement-inactivated 10% fetal bovine serum (FBS, Vitromex) and 100 units/mL Penicillin G (Meiji), which was placed in an incubator set at conditions of 37° C. and 5% CO2.
Transfection into the HEK293A cells was carried out using PEI-Max (Polyscience) at a ratio of 3 μL of PEI-Max to 1 μg of plasmid. DMEM was mixed with PEI-Max, and the mixture was then left at rest for 5 minutes. Thereafter, the reaction mixture was added to the plasmid DNA dissolved in DMEM, and the thus obtained mixture was further left at rest for 15 minutes. After seeding, the culture was carried out for 12 to 24 hours, and the resultant was then added to a culture medium of cells, in which the medium had been exchanged with DMEM supplemented only with 10% FBS.
pcDNA3.0-Derlin-1-HA, pcDNA3.0-Flag-SOD1 G93A, and 123 types of other mutants.
In the lysis of HEK293A cells for use in a co-immunoprecipitation experiment, an IP lysis buffer (20 mM Tris-HCl (pH 7.5), 150 mM NaCl, 10 mM EDTA (pH 8.0), 1% Triton-X 100, 5 μg/mL leupeptin, and 1 mM phenylmethylsulfonyl fluoride) was used.
After the transfection on a 24-well plate, the cells were cultured for 12 hours or 24 hours, and the obtained cell culture was exchanged with 200 μL of medium. Thereafter, 1% DMSO or various types of compounds having each different concentration were added into the culture. Thirty-six hours or twenty-four hours later, the cells were incubated in the IP lysis buffer (300 μL/well) at 4° C. for 25 minutes, so that the cells were lysed. The cell lysate was centrifuged at 4° C. at 15000 rpm for 10 minutes, and a supernatant was then recovered. To this supernatant, Anti-Flag M2 affinity gel was added in a liquid amount of 20 μL, and they were allowed to react with each other by subjecting the obtained mixture to inversion mixing at 4° C. for 25 minutes. After completion of the reaction, a supernatant was removed, and the residue was washed twice with High salt wash buffer (1% Triton X 100, 500 mM NaCl, 20 mM Tris-HCl (pH 7.5), and 5 mM EGTA), and was then washed once with Low salt wash buffer (150 mM NaCl, 20 mM Tris-HCl (pH 7.5), and 5 mM EGTA). Finally, 50 μL of a 2×SDS sample buffer was added to the resultant, and the obtained mixture was then boiled at 98° C. for 3 minutes to obtain an SDS-PAGE sample. Regarding the lysate, a 2×SDS sample buffer was added in an amount equal to the supernatant, and the obtained mixture was then boiled at 98° C. for 3 minutes to obtain an SDS-PAGE sample.
After completion of SDS-PAGE, a protein was transferred from the gel into a polyvinylidene difluoride membrane (PVDF) ([…], Pall), and was then blocked with TBS-T (150 mM NaCl, 50 mM Tris-HCl (pH 8.0), and 0.05% Tween 20) supplemented with 5% skimmed milk at room temperature for 2 hours or more. Thereafter, a primary antibody diluted with TBS-T supplemented with 5% bovine serum albumin and 0.1% NaN3 was allowed to bind to each molecule on the PVDF membrane at 4° C. for 12 hours or more. After completion of the reaction, a secondary antibody (HRP-linked 2nd antibody) diluted with TBS-T supplemented with 5% skimmed milk was allowed to bind to the primary antibody at room temperature for 1 hour. Thereafter, the resultant was washed with TBS-T for 15 minutes, 3 or more times, and detection was then carried out using an enhanced chemiluminescence (ECL) system.
With regard to the compounds of the present invention (Example Compound 1 to Example Compound 47), whether or not the present compound can inhibit the binding between ALS-related mutant SOD1 and Derlin-1 in a cell by being added into a cell culture solution was examined according to a co-immunoprecipitation experiment. […]

T1 sequence (P00441 whole entry G94A, species assumed): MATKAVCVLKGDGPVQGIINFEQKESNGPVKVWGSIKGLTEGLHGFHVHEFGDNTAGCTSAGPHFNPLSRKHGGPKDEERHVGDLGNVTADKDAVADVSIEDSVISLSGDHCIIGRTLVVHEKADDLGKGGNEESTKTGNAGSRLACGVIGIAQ
T1 sequence (Q9BUN8 whole entry, species assumed, stated change not applied): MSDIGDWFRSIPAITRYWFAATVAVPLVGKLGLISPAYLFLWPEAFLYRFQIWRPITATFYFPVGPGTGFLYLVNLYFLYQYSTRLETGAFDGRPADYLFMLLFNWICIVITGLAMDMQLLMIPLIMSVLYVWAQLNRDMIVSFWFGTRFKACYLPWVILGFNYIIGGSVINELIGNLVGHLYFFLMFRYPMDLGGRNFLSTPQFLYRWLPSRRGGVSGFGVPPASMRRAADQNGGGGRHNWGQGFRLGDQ

In the case of `Nc1c(C(=O)Nc2ccc(OCc3ccccc3)cc2)sc2nc(-c3cccnc3)ccc12` [Example 26, 3-amino-N-[4-(benzyloxy)phenyl]-6-(3-pyridinyl)thieno[2,3-b]pyridine-2-carboxamide], the “Activity value (score)” value is reported as 1.

With `Nc1c(C(=O)Nc2ccc(I)cc2)sc2nc(-c3cccnc3)ccc12` [Example 27, 3-amino-N-(4-iodophenyl)-6-(3-pyridinyl)thieno[2,3-b]pyridine-2-carboxamide] the “Activity value (score)” value was 1.

For `Nc1c(C(=O)Nc2ccc(C(F)(F)F)cc2)sc2nc(-c3cccnc3)ccc12` [Example 29, 3-amino-6-(3-pyridinyl)-N-(4-(trifluoromethyl)phenyl)thieno[2,3-b]pyridine-2-carboxamide], the “Activity value (score)” value was 1.

`Nc1c(C(=O)Nc2ccc(-c3cc(C(F)(F)F)cc(C(F)(F)F)c3)cc2)sc2nc(-c3cccnc3)ccc12` [Example 30, 3-amino-N-(3′,5′-bis(trifluoromethyl)-[1,1′-biphenyl]-4-yl)-6-(3-pyridinyl)thieno[2,3-b]pyridine-2-carboxamide] was tested, and the “Activity value (score)” value was 1.

`Nc1c(C(=O)Nc2cccc(C(F)(F)F)c2)sc2nc(-c3ccncc3)ccc12` [Example 31, 3-amino-6-(4-pyridinyl)-N-(3-(trifluoromethyl)phenyl)thieno[2,3-b]pyridine-2-carboxamide] was tested, and the “Activity value (score)” value was 1.

For `Nc1c(C(=O)Nc2ccncc2)sc2nc(-c3ccncc3)ccc12` [Example 32, 3-amino-N-(4-pyridinyl)-6-(4-pyridinyl)thieno[2,3-b]pyridine-2-carboxamide], the “Activity value (score)” value was 1.

For `Nc1c(C(=O)Nc2ccncc2)sc2nc(-c3cncnc3)ccc12` [Example 33, 3-amino-N-(4-pyridinyl)-6-(5-pyrimidinyl)thieno[2,3-b]pyridine-2-carboxamide], the “Activity value (score)” value was 1.

With `C=C(C)CN(C(=O)c1sc2nc(-c3cccnc3)ccc2c1N)c1ccc(F)cc1` [Example 34, 3-amino-N-(4-fluorophenyl)-N-(2-methylprop-2-en-1-yl)-6-(3-pyridinyl)thieno[2,3-b]pyridine-2-carboxamide] the “Activity value (score)” value was 1.

For `C#CCN(C(=O)c1sc2nc(-c3cccnc3)ccc2c1N)c1ccc(F)cc1` [Example 35, 3-amino-N-(4-fluorophenyl)-N-(prop-2-yn-1-yl)-6-(3-pyridinyl)thieno[2,3-b]pyridine-2-carboxamide], the “Activity value (score)” value was 1.

`C#CCOC/C=C\CN(C(=O)c1sc2nc(-c3cccnc3)ccc2c1N)c1ccccc1` [Example 36] was tested, and the “Activity value (score)” value was 1.

With `Nc1c(C(=O)N(Cc2ccccc2)c2ccccc2)sc2nc(-c3cccnc3)ccc12` [Example 37, 3-amino-N-benzyl-N-phenyl-6-(3-pyridinyl)thieno[2,3-b]pyridine-2-carboxamide] the “Activity value (score)” value was 2.

`CC(C)=CCN(C(=O)c1sc2nc(-c3cccnc3)ccc2c1N)c1ccncc1` [Example 39, 3-amino-N-prenyl-N-(4-pyridinyl)-6-(3-pyridinyl)thieno[2,3-b]pyridine-2-carboxamide] was tested, and the “Activity value (score)” value was 1.

In the case of `Nc1c(C(=O)N(CC=C2CCCC2)c2ccccc2)sc2nc(-c3cccnc3)ccc12` [Example 40, 3-amino-N-(2-cyclopentylideneethyl)-N-phenyl-6-(3-pyridinyl)thieno[2,3-b]pyridine-2-carboxamide], the “Activity value (score)” value is reported as 1.

In the case of `CC1(C)CCN(C(=O)c2sc3nc(-c4cccnc4)ccc3c2N)c2ccccc21` [Example 41], the “Activity value (score)” value is reported as 3.

`CC(C)=CCN(C(=O)c1ccc2nc(-c3cccnc3)ccc2c1N)c1ccccc1` [Example 42, 5-Amino-N-phenyl-N-prenyl-2-(pyridin-3-yl)quinoline-6-carboxamide] was tested, and the “Activity value (score)” value was 1.

`CC(C)=CCN(C(=O)c1sc2nc(-c3ccncc3)ccc2c1N)c1ccc(C(C)(C)C)cc1` [Example 43, 3-amino-N-(4-tert-butylphenyl)-N-(3-methylbut-2-en-1-yl)-6-(4-pyridinyl)thieno[2,3-b]pyridine-2-carboxamide] was tested, and the “Activity value (score)” value was 1.

`CC1(C)CCN(C(=O)c2sc3nc(-c4ccncc4)ccc3c2N)c2ccccc21` [Example 44] was tested, and the “Activity value (score)” value was 1.

In the case of `COc1cccc(N(CC=C(C)C)C(=O)c2sc3nc(-c4ccncc4)ccc3c2N)c1` [Example 45, 3-amino-N-(3-methoxyphenyl)-N-prenyl-6-(4-pyridinyl)thieno[2,3-b]pyridine-2-carboxamide], the “Activity value (score)” value is reported as 1.

For `COc1ccc(N(CC=C(C)C)C(=O)c2sc3nc(-c4ccncc4)ccc3c2N)cc1` [Example 46, 3-amino-N-(4-methoxyphenyl)-N-prenyl-6-(4-pyridinyl)thieno[2,3-b]pyridine-2-carboxamide], the “Activity value (score)” value was 2.

`C=C(C)CN(C(=O)c1sc2nc(-c3ccncc3)ccc2c1N)c1ccccc1` [Example 47, 3-amino-N-metallyl-N-phenyl-6-(4-pyridinyl)thieno[2,3-b]pyridine-2-carboxamide] was tested, and the “Activity value (score)” value was 2.
